Experimental data from patent US20240293559A1, “SHP2 inhibitor, pharmaceutical composition containing the same and application thereof” (BEIJING TIDE PHARMACEUTICAL CO., LTD., priority 2021, published 2024).

Molecular target: T1, SHP2 (Homo sapiens, UniProt Q06124)
T1 construct: endogenous in cells; host or cells: MV 411
T1 sequence (Q06124 1-593): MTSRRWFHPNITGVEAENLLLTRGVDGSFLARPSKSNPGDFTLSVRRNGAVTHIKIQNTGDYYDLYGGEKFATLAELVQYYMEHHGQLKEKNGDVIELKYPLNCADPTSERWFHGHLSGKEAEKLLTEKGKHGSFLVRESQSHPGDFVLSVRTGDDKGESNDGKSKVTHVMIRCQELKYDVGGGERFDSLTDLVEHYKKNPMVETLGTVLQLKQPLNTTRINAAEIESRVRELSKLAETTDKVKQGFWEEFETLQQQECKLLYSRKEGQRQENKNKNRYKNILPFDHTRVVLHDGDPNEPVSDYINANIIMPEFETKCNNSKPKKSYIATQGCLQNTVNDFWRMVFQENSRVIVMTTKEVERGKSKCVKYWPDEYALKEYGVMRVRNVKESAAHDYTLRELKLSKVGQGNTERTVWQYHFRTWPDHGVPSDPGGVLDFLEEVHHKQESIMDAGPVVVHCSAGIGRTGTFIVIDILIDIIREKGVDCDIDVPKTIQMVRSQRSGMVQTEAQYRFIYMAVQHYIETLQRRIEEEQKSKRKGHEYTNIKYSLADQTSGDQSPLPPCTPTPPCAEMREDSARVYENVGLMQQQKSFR
Test: SHP2 degradation in MV 411 cells by Western blot (median degradation concentration)
Assay type: cell-based
Settings: 24 hours with compound, SHP-2 antibody Western blot, concentration of the median degradation from exposure gray scale
From the text: Reagent: complete DMEM medium, Gibco products. Fetal bovine serum, manufactured byThermoFisher. Trypsin, manufactured byThermoFisher. The SHP-2 antibody is produced by CST. Cell line, MV 411, the blast cells of patients with bi-phenotypic B-myelomonocytic leukemia, was established by Rovera. Measuring method: took the cells growing in the logarithmic phase, collected and suspended the cells in DMEM containing 10% fetal calf serum, gently blowed and beated the cells into single cell suspension by using a pipette, and counted the living cells under a microscope. […] Then cultured for 24 hours. All cells were collected and washed with PBS, lysed with RIPA lysate and collected into a 1.7 ml tube. […] metal bath for 5 minutes to fully denature the protein. 100V constant voltage electrophoresis after Western condensation and loading, stopped when bromophenol blue band reached the end point. The cellulose acetate membrane is transferred by a wet method, 45 minutes at a constant flow of 300-500 mA, 5% BSA is used for blocking for 1-2 hours at room temperature. Primary antibody of 1:500-1:8000 were used for incubation at 25° C. for 40 minutes and then washed three times. Secondary antibody was used for incubation for 15-40 min at room temperature. The proteins were detected using ultrasensitive ECL luminophores such as […], using an X-Ray film automatic developing machine. The concentration of the median degradation was calculated by exposure gray scale.

Row | SMILES | DC50 [nM]
1 | CCOc1cc2oc(-c3ccc(OCCOCCOCCOCCOc4cccc5c4C(=O)N(C4CCC(=O)NC4=O)C5=O)cc3Cl)cc(=O)c2cc1-c1cc(C(N)=O)cc(N(C)C(C)=O)c1 (stereo not drawn) [Compound 65] | > 250
2 | CCOc1cc2oc(-c3ccc(OCCOCCOCCOCCOc4cccc5c4C(=O)N(C4CCC(=O)NC4=O)C5=O)cc3Cl)cc(=O)c2cc1-c1cc(C(N)=O)cc(N(C)S(=O)(=O)c2ccccc2)c1 (stereo not drawn) [Compound 69] | > 250
3 | CCOc1cc2oc(-c3ccc(OCCOCCOCCOCCOc4cccc5c4C(=O)N(C4CCC(=O)NC4=O)C5=O)cc3Cl)cc(=O)c2cc1-c1cc(NC(=O)NC)cc(C(N)=O)c1 (stereo not drawn) [Compound 70] | > 250
4 | CCOc1cc2oc(-c3ccc(OCCOCCOCCOCCOc4cccc5c4C(=O)N(C4CCC(=O)NC4=O)C5=O)cc3Cl)cc(=O)c2cc1-c1cc(C(N)=O)cc(C(N)=O)c1 (stereo not drawn) [Compound 74] | 2
5 | CCOc1cc2oc(-c3ccc(OCCOCCOCCOCCOc4cccc5c4C(=O)N(C4CCC(=O)NC4=O)C5=O)cc3Cl)cc(=O)c2cc1-c1cc(C(C)=O)cc(C(N)=O)c1 (stereo not drawn) [Compound 75] | 24.6
6 | CCOc1cc2oc(-c3ccc(OCCOCCOCCOCCOc4cccc5c4C(=O)N(C4CCC(=O)NC4=O)C5=O)cc3Cl)cc(=O)c2cc1-c1cc(C(N)=O)cc(C(=O)NC)c1 (stereo not drawn) [Compound 76] | > 250
7 | CCOc1cc2oc(-c3ccc(OCCOCCOCCOCCOc4cccc5c4C(=O)N(C4CCC(=O)NC4=O)C5=O)cc3Cl)cc(=O)c2cc1-c1cc(C(N)=O)cc(C(=O)Nc2ccccc2)c1 (stereo not drawn) [Compound 78] | > 250
8 | CCOc1cc2oc(-c3ccc(OCCOCCOCCOCCOc4cccc5c4C(=O)N(C4CCC(=O)NC4=O)C5=O)cc3Cl)cc(=O)c2cc1-c1cc(C(N)=O)cc(S(N)(=O)=O)c1 (stereo not drawn) [Compound 80] | > 500
9 | CCOc1cc2oc(-c3ccc(OCCOCCOCCOCCOc4cccc5c4C(=O)N(C4CCC(=O)NC4=O)C5=O)cc3Cl)cc(=O)c2cc1-c1cc(C(N)=O)cc(S(=O)(=O)NC)c1 (stereo not drawn) [Compound 81] | > 500
10 | CCOc1cc2oc(-c3ccc(NCCOCCOCCOCCOc4ccc5c(c4)C(=O)N(C4CCC(=O)NC4=O)C5=O)cc3Cl)cc(=O)c2cc1-c1cccc(C(C)=O)c1 (stereo not drawn) [Compound 86] | 50
11 | CCOc1cc2oc(-c3ccc(OCCOCCOCCOCCOc4ccc5c(c4)C(=O)N(C4CCC(=O)NC4=O)C5=O)cc3Cl)cc(=O)c2cc1-c1cncc(C(C)=O)c1 (stereo not drawn) [Compound 87] | 45
12 | CCOc1cc2oc(-c3ccc(OCc4cn(CC(=O)N5CCC(OC6CC(Oc7cccc8c7C(=O)N(C7CCC(=O)NC7=O)C8=O)C6)CC5)nn4)cc3Cl)cc(=O)c2cc1-c1cccc(C(C)=O)c1 (stereo not drawn) [Compound 88] | 55

The next lines start with the values.

Row | DC50 [nM] | SMILES
13 | > 250 | CCOc1cc2oc(-c3ccc(OCCOCCOCCOCCOc4cccc5c4C(=O)N(C4CCC(=O)NC4=O)C5=O)cc3Cl)cc(=O)c2cc1-c1cc(NS(C)(=O)=O)cc(C(N)=O)c1 (stereo not drawn) [Compound 66]
14 | > 250 | CCOc1cc2oc(-c3ccc(OCCOCCOCCOCCOc4cccc5c4C(=O)N(C4CCC(=O)NC4=O)C5=O)cc3Cl)cc(=O)c2cc1-c1cc(C(N)=O)cc(N(C)S(C)(=O)=O)c1 (stereo not drawn) [Compound 67]
15 | > 250 | CCOc1cc2oc(-c3ccc(OCCOCCOCCOCCOc4cccc5c4C(=O)N(C4CCC(=O)NC4=O)C5=O)cc3Cl)cc(=O)c2cc1-c1cc(NS(=O)(=O)c2ccccc2)cc(C(N)=O)c1 (stereo not drawn) [Compound 68]
16 | > 250 | CCOc1cc2oc(-c3ccc(OCCOCCOCCOCCOc4cccc5c4C(=O)N(C4CCC(=O)NC4=O)C5=O)cc3Cl)cc(=O)c2cc1-c1cc(NC(=O)Nc2ccccc2)cc(C(N)=O)c1 (stereo not drawn) [Compound 71]
17 | > 250 | CCOc1cc2oc(-c3ccc(OCCOCCOCCOCCOc4cccc5c4C(=O)N(C4CCC(=O)NC4=O)C5=O)cc3Cl)cc(=O)c2cc1CCC(=O)Nc1ccccc1 (stereo not drawn) [Compound 72]
18 | > 250 | CCOc1cc2oc(-c3ccc(OCCOCCOCCOCCOc4cccc5c4C(=O)N(C4CCC(=O)NC4=O)C5=O)cc3Cl)cc(=O)c2cc1-c1cc(O)cc(C(N)=O)c1 (stereo not drawn) [Compound 73]
19 | > 250 | CCOc1cc2oc(-c3ccc(OCCOCCOCCOCCOc4cccc5c4C(=O)N(C4CCC(=O)NC4=O)C5=O)cc3Cl)cc(=O)c2cc1-c1cc(C(N)=O)cc(C(=O)N(C)C)c1 (stereo not drawn) [Compound 77]
20 | 500 | CCOc1cc2oc(-c3ccc(OCCOCCOCCOCCOc4cccc5c4C(=O)N(C4CCC(=O)NC4=O)C5=O)cc3Cl)cc(=O)c2cc1-c1cc(C(N)=O)cc(S(C)(=O)=O)c1 (stereo not drawn) [Compound 79]
21 | 75 | CCOc1cc2oc(-c3ccc(NCCOCCOCCOCCOc4cccc5c4C(=O)N(C4CCC(=O)N(COC(=O)CC6CCCCC6)C4=O)C5=O)cc3Cl)cc(=O)c2cc1-c1cccc(C(C)=O)c1 (stereo not drawn) [Compound 89]
